Measurements: patent US11110115B2, “Nucleic acid molecule with anti-inflammatory and anti-coagulant and organ-protective properties” (APTAHEM AB, priority 2017, dated 2021)

Columns and labels:
[1] = Prothrombin time in arteriovenous shunt model; format: in vivo, Sprague-Dawley male rats; conditions: SEQ ID NO:2 33.3 mg/kg i.v. 5 min prior; Rivaroxaban 10 mg/kg p.o. 90 min prior
Description: FIG. 2: Anti-coagulant activity of SEQ ID NO:2 in Arteriovenous Shunt model. Male rats were intravenously injected with saline (Vehicle) or SEQ ID NO:2 solution, according to their body weight. Rivaroxaban was orally administered to the positive control group. 5 to 90 minutes after administration, rats were anesthetized with pentobarbital-na (50 mg/kg). The left jugular vein and the right carotid artery of anesthetized rats were connected with two catheters. The thrombus weight formed on the thread was calculated by subtracting the average weight of the rough nylon thread (A). Prothrombin times were measured (B) and Activated partial thromboplastin times (APTT) were analysed (C). Each bar represents the mean±SEM (n=8 for vehicle and rivaroxaban groups, n=3 for SEQ ID NO:2 group), *p<0.05, **p<0.01, ***p<0.001 vs Vehicle.
The animals were assigned to 3 dosing groups according to the body weight (see table 2). Vehicle treated animals were intravenously injected with saline 90 min prior to shunt assay. The positive control treated animals were orally given Rivaroxaban 10 mg/kg at 90 min prior to shunt assay. SEQ ID NO:2 was intravenously injected 5 min prior to shunt assay.

[2] = Arteriovenous shunt model, thrombus weight; format: in vivo, Sprague-Dawley male rats; conditions: SEQ ID NO:2 33.3 mg/kg i.v. 5 min prior; Rivaroxaban 10 mg/kg p.o. 90 min prior; 15 min extracorporeal circulation
Description: This study was conducted at Shanghai WuXi AppTec Co., Ltd., and in accordance with WuXi IACUC standard animal procedures along with the IACUC guidelines that are in compliance with the Animal Welfare Act, the Guide for the Care and Use of Laboratory Animals, and the Office of Laboratory Animal Welfare (OLAW). Sprague-Dawley male rats with body weight ranging between 150-200 g (Vital River; Bejing, P.R. China) were fed ad libitum a rodent diet. Animals had free access to autoclaved and acidified drinking water. Animals were housed under standard laboratory conditions, air conditioned and filtered with adequate fresh air supply. Animals were kept in a climate controlled environment. Rivaroxaban (10 mg/kg) has been dissolved in water and stored at 4° C. 20 mg SEQ ID NO:2 (Biospring) was dissolved in 3 ml Saline, vortexed for 5 min., sonicated with a water bath ultrasonic for 1 minute to achieve 6.66 mg/ml SEQ ID NO:2. The animals were assigned to 3 dosing groups according to the body weight (see table 2). […] Extracorporeal circulation was maintained for 15 min, the thrombus weight formed on the thread was calculated by subtracting the average weight of the rough nylon thread. Significance of difference between control and treated groups was analyzed by performing analysis of variance (ANOVA) by EXCEL office software.

[3] = Tail bleeding model (bleeding time); format: in vivo, Sprague-Dawley rats; conditions: SEQ ID NO:2 5, 20, 40 mg/kg i.v. 5 min before, Rivaroxaban 10 mg/kg PO 1 hour before, Warfarin 0.5 mg/kg IV
Description: A total of 36 Sprague-Dawley male and female rats were utilized and divided into six groups comprising of 6 animals per group. Animal handling was performed according to guidelines of the National Institute of Health and the Association for Assessment and Accreditation of Laboratory Animal Care. Animals were fed ad libitum a commercial rodent diet (Teklad Certified Global 18% Protein Diet cat #: 2018SC). Animals had free access to autoclaved and acidified drinking water (pH between 2.5 and 3.5) obtained from the municipality supply. Animals were housed under standard laboratory conditions, air conditioned and filtered with adequate fresh air supply. Animals were kept in a climate controlled environment.
SEQ ID NO:2 (Biospring) (100 mg) was dissolved in 5 ml saline to form a stock solution of 20 mg/ml. Vehicle (saline) was provided by Pharmaseed as ready to use for i.v. administration. Rivaroxaban (Bayer, Pharmaseed Ltd) dosing solution was diluted at 10 mg/kg (Group 2M). Warfarin (Ceriliant, Pharmaseed Ltd) was diluted at 0.5 mg/kg (Group 3M). Both Rivaroxaban and Warfarin are clinical standards with anticoagulation activity. To obtain SEQ ID NO:2 dosing solution (2.5 mg/ml) for dose level of 5 mg/kg and dose volume of 2 ml/kg for i.v. injection, 0.375 ml of the above 20 mg/ml stock solution was diluted with 2.625 ml of saline (Group 4M). To obtain SEQ ID NO:2 dosing solution (10 mg/ml) for dose level of 20 mg/kg and dose volume of 2 ml/kg for i.v. injection, 1.5 ml of the above 20 mg/ml stock solution was diluted with 1.5 ml saline (Group 5M). To obtain SEQ ID NO:2 dosing solution (20 mg/ml) for dose level of 40 mg/kg and dose volume of 2 ml/kg for i.v. injection, the above 20 mg/ml stock used (Group 6).
Rats were intravenously injected five minutes before bleeding time assay. […] Three treated groups received SEQ ID NO:2 at dose levels of 5, 20 and 40 mg/kg saline solution. In each gender, control groups received saline Vehicle. A positive control group received Rivaroxaban (10 mg/kg). Rivaroxaban was administered by oral gavage 1 hour before bleeding time assay. A second positive control groups received Warfarin (0.5 mg/kg).
Male and female rats were anaesthetized by intraperitoneal injection of ketamine/xylazine. Bleeding time was monitored as described in Stupnisek et al. (2012), until blood flow stopped for a complete 30-sec interval or till the end of 30 min period. In deeply anaesthetized rats (placed in ventral position) the tail was transected with a surgical scalpel 2 mm from the tip (and submerged into a tube with 40 ml of saline at room temperature in vertical position) and the duration and amount of bleeding was measured to evaluate the hemostatic effect of the agents or saline administration. Following the completion of bleeding time evaluation, all rats were immediately sacrificed by CO2 asphyxiation.
Numerical results were given as means±standard errors. If applicable, statistical analysis was carried out using one-way ANOVA followed by Dunnett's Multiple Comparison post Test. A probability of 5% (p≤0.05) was regarded as significant.

[4] = Activated partial thromboplastin time (APTT) in arteriovenous shunt model; format: in vivo, Sprague-Dawley male rats; conditions: SEQ ID NO:2 33.3 mg/kg i.v. 5 min prior; Rivaroxaban 10 mg/kg p.o. 90 min prior

SMILES | Prothrombin times compared to vehicle group [1] | thrombus weight, less than vehicle group [2] | group average bleeding time compared to matched vehicle group ([3]; female rats) | group average bleeding time compared to matched vehicle group ([3]; male rats) | Activated Partial Thromboplastin Time (APTT) compared to vehicle group [4]
O=C(NC[C@H]1CN(c2ccc(N3CCOCC3=O)cc2)C(=O)O1)c1ccc(Cl)s1 [Rivaroxaban, reference compound] | significantly prolonged | 26.5% | increased significantly | increased significantly | did not show any different
CC(=O)CC(c1ccccc1)c1c(O)c2ccccc2oc1=O (stereo not shown) [Warfarin, reference compound] | – | – | increased significantly | increased significantly | –
